According to paper PMC7689791 (Journal of Clinical Pharmacology, 2020):

Assay: Observed incidence of treatment-emergent adverse events in clinical studies
Settings: studies 202, 303, 304; 5 to 15 mg

In the case of `Cc1ncc(OC[C@@]2(c3cccc(F)c3)C[C@H]2C(=O)Nc2ccc(F)cn2)c(C)n1` [Lemborexant], the “Flu/influenza frequency, active treatment” value is reported as 4.0%.
